For orientation: IC50 means the point on the concentration scale where inhibition reaches its midpoint. Low values mean greater potency in that assay, high ones weaker potency in that assay.

For experiment [1], the system named is herpes simplex virus type 1(HSV-1) (strain 17i). Put plainly: Antiviral plaque reduction assay, HSV-1. The experiment is classed as cell-based. The following applies: Human alphaherpesvirus 1; HSV-1, Vero cells, plaque numbers after 2 or 3 days. As to the method:
(§1) Compound 34 is tested for antiviral activity against herpes simplex virus type 1(HSV-1) (strain 17i) and herpes simplex virus type 2(HSV-2) (strain HG52) in vitro. Aqueous solutions of the compounds are prepared at concentrations between 10mM and […]. The solutions are stored at -70°C after preparation and thawed prior to use in the antiviral assays. After thawing, the solutions are diluted to the appropriate concentration in the cell-culture medium without prior filtration.
(§2) In a procedure similar to that described by Tyms etal, J. Antimicrob. Chemother, 8,65-72 (1981), cell monolayers are infected with 20-200 plaque forming units and after virus adsorption the inoculum is replaced by maintenance medium containing different concentrations of the compound under investigation. Virus spread is prevented by the incorporation of 0.5% low gelling temperature agarose. At the end of a set period (2 or 3 days) monolayers are fixed, stained with methylene blue and plaque numbers determined.
A general note: Plaques are areas of infected cells; plaque reduction assays count them against a control.

Experiment [2] relates to herpes simplex virus type 2(HSV-2) (strain HG52). Put plainly: Antiviral plaque reduction assay, HSV-2. The experiment is classed as cell-based. To be noted: Human alphaherpesvirus 2; HSV-2, Vero cells, plaque numbers after 2 or 3 days. As to the method:
as §1, §2

As for `Cc1cn(C2CC(O)C(CCP(=O)(c3ccccc3)C(O)C3CC(n4cc(C)c(=O)[nH]c4=O)OC3CO[Si](c3ccccc3)(c3ccccc3)C(C)(C)C)O2)c(=O)[nH]c1=O` (centres unmarked) [Compound 34], the IC50 was found to be 2.6 µM in experiment [1] and 3.8 µM in experiment [2].

These data come from patent EP0629633A2, “Dinucleotide analogues, intermediates therefor and oligonucleotides derived therefrom” (CIBA-GEIGY AG, priority 1993, dated 1994).
